Test results as given in ChEMBL document CHEMBL1201862, “PubChem BioAssay data set” (2004).
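96-well plates; 48 h exposure; 5 concentrations. Endpoints by linear interpolation between flanking doses. Not reached: highest tested concentration assigned. At the GI50, growth is halved.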 The source made the active and inactive calls. No stated cut-off is given here; in the data, active = GI50 up to about 1.1 µM and inactive = higher. Where a SMILES comes first, the peptide text is derived from it. The star is where a group is joined. Boc = CC(C)(C)OC(=O)*; OBn = c1ccc(CO*)cc1

Legend:
Experiment in all cases: DTP human tumour cell line panel, 48 h
RXF 393 = system: RXF 393
HOP-62 = system: HOP-62
HT-29 = system: HT-29
HCT-15 = system: HCT-15
Malme-3M = system: Malme-3M
SR = system: SR
PC-3 = system: PC-3
NCI/ADR-RES = system: NCI/ADR-RES
SK-MEL-28 = system: SK-MEL-28
CAKI-1 = system: CAKI-1
MDA-MB-231 = system: MDA-MB-231
HCT-116 = system: HCT-116
DU-145 = system: DU-145
OVCAR-4 = system: OVCAR-4
NCI-H460 = system: NCI-H460
A549 = system: A549
SK-MEL-5 = system: SK-MEL-5
UO-31 = system: UO-31
U-251 = system: U-251
NCI-H522 = system: NCI-H522

O=C1NC(=O)[C@@H](OCC2CCCCC2)[C@@H]2OCC3OC(C(O)C3O)C12 (stereo partly drawn)
GI50 (RXF 393): > 100 µM (inactive) | GI50 (HOP-62): > 100 µM (inactive) | GI50 (HT-29): > 100 µM (inactive) | GI50 (HCT-15): > 100 µM | GI50 (Malme-3M): > 100 µM (inactive) | GI50 (SR): > 100 µM (inactive) | GI50 (PC-3): > 100 µM (inactive) | GI50 (NCI/ADR-RES): > 100 µM (inactive) | GI50 (SK-MEL-28): > 100 µM (inactive) | GI50 (CAKI-1): > 100 µM (inactive) | GI50 (MDA-MB-231): > 100 µM (inactive) | GI50 (HCT-116): > 100 µM (inactive) | GI50 (DU-145): > 100 µM (inactive) | GI50 (OVCAR-4): > 100 µM (inactive) | GI50 (NCI-H460): > 100 µM (inactive) | GI50 (A549): > 100 µM (inactive) | GI50 (SK-MEL-5): > 100 µM (inactive)

CC(C)CC(NC(=O)C(Cc1ccccc1)NC(=O)C(Cc1ccccc1)NC(=O)OC(C)(C)C)C(=O)OCc1ccccc1 (stereo not drawn) (Boc-Phe-Phe-Leu-OBn; configuration not given here)
GI50 (RXF 393): > 100 µM (inactive) | GI50 (HOP-62): > 100 µM (inactive) | GI50 (HT-29): > 100 µM (inactive) | GI50 (HCT-15): > 100 µM | GI50 (Malme-3M): > 100 µM (inactive) | GI50 (SR): > 100 µM (inactive) | GI50 (PC-3): > 100 µM (inactive) | GI50 (NCI/ADR-RES): > 100 µM (inactive) | GI50 (SK-MEL-28): > 100 µM (inactive) | GI50 (CAKI-1): > 100 µM (inactive) | GI50 (UO-31): > 100 µM (inactive) | GI50 (MDA-MB-231): > 100 µM (inactive) | GI50 (HCT-116): > 100 µM (inactive) | GI50 (U-251): > 100 µM (inactive) | GI50 (DU-145): > 100 µM (inactive) | GI50 (NCI-H522): > 100 µM (inactive) | GI50 (A549): > 100 µM (inactive) | GI50 (SK-MEL-5): > 100 µM (inactive)

COC(=O)C(Cc1ccccc1)NP(=O)(O)OCC1OC(n2cc(I)c(=O)[nH]c2=O)CC1O (stereo not drawn)
GI50 (HOP-62): > 100 µM (inactive) | GI50 (HT-29): > 100 µM (inactive) | GI50 (HCT-15): > 100 µM | GI50 (Malme-3M): > 100 µM (inactive) | GI50 (SR): > 100 µM (inactive) | GI50 (PC-3): > 100 µM (inactive) | GI50 (NCI/ADR-RES): > 100 µM (inactive) | GI50 (SK-MEL-28): > 100 µM (inactive) | GI50 (CAKI-1): > 100 µM (inactive) | GI50 (UO-31): > 100 µM (inactive) | GI50 (MDA-MB-231): > 100 µM (inactive) | GI50 (HCT-116): > 100 µM (inactive) | GI50 (U-251): > 100 µM (inactive) | GI50 (DU-145): > 100 µM (inactive) | GI50 (OVCAR-4): > 100 µM (inactive) | GI50 (NCI-H522): > 100 µM (inactive) | GI50 (NCI-H460): > 100 µM (inactive) | GI50 (A549): > 100 µM (inactive) | GI50 (SK-MEL-5): > 100 µM (inactive)

Nc1cccc(Nc2nc3ccccc3nc2NS(=O)(=O)c2ccccc2)c1
GI50 (RXF 393): 18.3 µM (inactive) | GI50 (HOP-62): 26.7 µM (inactive) | GI50 (HT-29): 27.1 µM (inactive) | GI50 (HCT-15): 25.6 µM | GI50 (Malme-3M): 28.6 µM (inactive) | GI50 (SR): 20.3 µM (inactive) | GI50 (PC-3): 19.5 µM (inactive) | GI50 (NCI/ADR-RES): 27.3 µM (inactive) | GI50 (SK-MEL-28): 18.3 µM (inactive) | GI50 (CAKI-1): 27 µM (inactive) | GI50 (UO-31): 16 µM (inactive) | GI50 (MDA-MB-231): 14.8 µM (inactive) | GI50 (HCT-116): 17.3 µM (inactive) | GI50 (U-251): 17.7 µM (inactive) | GI50 (DU-145): 31.5 µM (inactive) | GI50 (OVCAR-4): 15.6 µM (inactive) | GI50 (NCI-H460): 22.1 µM (inactive) | GI50 (A549): 33 µM (inactive) | GI50 (SK-MEL-5): 15.4 µM (inactive)

N=C(N)C(/N=N\c1ccccc1)C(=N)N (stereo not drawn)
GI50 (RXF 393): > 100 µM (inactive) | GI50 (HOP-62): 61.7 µM (inactive) | GI50 (HT-29): 29.8 µM (inactive) | GI50 (HCT-15): 49.8 µM | GI50 (Malme-3M): 51.1 µM (inactive) | GI50 (PC-3): 31.8 µM (inactive) | GI50 (NCI/ADR-RES): 60.4 µM (inactive) | GI50 (SK-MEL-28): 49.1 µM (inactive) | GI50 (CAKI-1): 38.4 µM (inactive) | GI50 (UO-31): 30.5 µM (inactive) | GI50 (MDA-MB-231): 15.3 µM (inactive) | GI50 (HCT-116): 33.5 µM (inactive) | GI50 (U-251): 24 µM (inactive) | GI50 (DU-145): > 100 µM (inactive) | GI50 (OVCAR-4): 42.4 µM (inactive) | GI50 (NCI-H522): 36 µM (inactive) | GI50 (NCI-H460): 32.1 µM (inactive) | GI50 (A549): 49.9 µM (inactive) | GI50 (SK-MEL-5): 28 µM (inactive)

COc1ccc2c(c1)O[C@@H]1C(O)Oc3cc(OC)c(OC)cc3[C@]1(O)C2=O (stereo partly drawn)
GI50 (RXF 393): > 100 µM (inactive) | GI50 (HOP-62): > 100 µM (inactive) | GI50 (HT-29): 89.9 µM (inactive) | GI50 (HCT-15): > 100 µM | GI50 (PC-3): 59.6 µM (inactive) | GI50 (NCI/ADR-RES): 30.4 µM (inactive) | GI50 (SK-MEL-28): > 100 µM (inactive) | GI50 (CAKI-1): > 100 µM (inactive) | GI50 (MDA-MB-231): 72.3 µM (inactive) | GI50 (HCT-116): 86.3 µM (inactive) | GI50 (U-251): 59 µM (inactive) | GI50 (DU-145): > 100 µM (inactive) | GI50 (OVCAR-4): 35.1 µM (inactive) | GI50 (NCI-H522): 5.33 µM (inactive) | GI50 (NCI-H460): 69 µM (inactive) | GI50 (A549): 9.1 µM (inactive) | GI50 (SK-MEL-5): 10.5 µM (inactive)

C=C(C)C1CC2=C(O1)C(=O)c1cccc(O)c1C2=O (stereo not drawn)
GI50 (RXF 393): 1.04 µM (active) | GI50 (HOP-62): 1.57 µM (inactive) | GI50 (HT-29): 1.59 µM (inactive) | GI50 (HCT-15): 2.05 µM | GI50 (Malme-3M): 1.08 µM (active) | GI50 (PC-3): 1.69 µM (inactive) | GI50 (NCI/ADR-RES): 1.05 µM (active) | GI50 (SK-MEL-28): 1.7 µM (inactive) | GI50 (CAKI-1): 0.764 µM (active) | GI50 (UO-31): 1.41 µM (inactive) | GI50 (MDA-MB-231): 1.82 µM (inactive) | GI50 (HCT-116): 10.9 µM (inactive) | GI50 (U-251): 1.43 µM (inactive) | GI50 (DU-145): 1.76 µM (inactive) | GI50 (OVCAR-4): 0.327 µM (active) | GI50 (NCI-H522): 0.378 µM (active) | GI50 (NCI-H460): 1.91 µM (inactive) | GI50 (A549): 2.47 µM (inactive) | GI50 (SK-MEL-5): 0.144 µM (active)
